Patent publication US20120245137A1 (Zalicus Pharmaceuticals Ltd., priority 2009, published 2012)
Like-named read-outs stand apart in the source and are kept apart here.

Legend:
[1] = molecular target: human α1H T-type channels (Homo sapiens, UniProt O95180); assay: T-type calcium channel block, whole cell patch clamp, α1H; assay type: cell-based; conditions: HEK cells stably expressing human α1H; mainly non-inactivated protocol; values above 10,000 nM represented as 10000
Summary of the method: (§1)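 Read-out: current block in whole-cell patch clamp of HEK 293 cells stably expressing human α1G or α1H subunits. Compounds were perfused locally in external solution (0.1-0.01% DMSO) under resting and inactivating voltage protocols.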

[2] = molecular target: N-type calcium channel subunits (α1B, α2δ, and β3a) (Homo sapiens, UniProt Q00975); assay: Block of Cav2.2 channel, whole cell voltage clamp, manual and PatchXpress; assay type: cell-based; conditions: Table 5; table follows Assay Example 3 (whole cell voltage clamp / PatchXpress); assay not given
Summary of the method: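 Percent block taken as current amplitude ratio with versus without compound, applied in rising doses; IC50 fitted where one cell received multiple doses. Protocol: 50 ms pulses to +20 mV at 0.067 Hz from […] or −90 mV holding; P/n leak subtraction, no junction-potential correction; manual and PatchXpress recordings.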

T-type calcium channel = assay: T-type channel blocking activity as summarised in text (subunit not stated); assay type: cell-based, human; conditions: Table 4
Experimental: T-type calcium channel blocking activity was assayed in human embryonic kidneycells, HEK 293 (Invitrogen), stably transfected with the T-type calcium channel subunits. Briefly, cells were cultured in Dulbecco's modified eagle medium (DMEM) supplemented with 10% fetal bovine serum, 200 U/ml penicillin, and 0.2 mg/mL streptomycin at 37° C. with 5% CO2. At 85% confluency, cells were split with 0.25% trypsin/1 mM EDTA and plated at 10% confluency on glass coverslips. At 12 hours, the medium was replaced, and the cells stably transfected using a standard calcium phosphate protocol and the appropriate calcium channel cDNA's. Fresh DMEM was supplied, and the cells transferred to 28° C./5% CO2. Cells were incubated for 1 to 2 days prior to whole cell recording.
Standard patch-clamp techniques were employed to identify blockers of T-type currents. Briefly, previously described HEK cell lines stably expressing human α1G, α1H, and α1I T-type channels were used for all the recordings (passage #: 4-20, 37° C., 5% CO2). Whole cell patch clamp experiments were performed using an Axopatch 200B amplifier (Axon Instruments, Burlingame, Calif.) linked to a personal computer equipped with pCLAMP software. Data were analyzed using Clampfit (Axon Instruments) and SigmaPlot 4.0 (Jandel Scientific). […]

[3] = molecular target: human α1G T-type channels (Homo sapiens, UniProt O43497); assay: T-type calcium channel block, whole cell patch clamp, α1G; assay type: cell-based; conditions: HEK cells stably expressing human α1G; mainly non-inactivated protocol; values above 10,000 nM represented as 10000
Summary of the method: as §1

male CF1 mice = assay: 6 Hz psychomotor seizure model of partial epilepsy; assay type: in vivo; design: concentration or dose not given beside the values; conditions: 6 Hz 32 mA corneal stimulus
From the text: Compounds can also be evaluated for the protection against seizures induced by a 6 Hz, 0.2 ms rectangular pulse width of 3 s duration, at a stimulus intensity of 32 mA (CC97) applied to the cornea of male CF1 mice (20-30 g) according to procedures described by Barton et al, “Pharmacological Characterization of the 6 Hz Psychomotor Seizure Model of Partial Epilepsy,” Epilepsy Res. 47(3):217-27 (2001). Seizures are characterised by the expression of one or more of the following behaviours: stun, forelimb clonus, twitching of the vibrissae and Straub-tail immediately following electrical stimulation.

mice [4] = conditions: mouse, in vivo
Experimental: (§2) In mice, the rotarod procedure (Dunham and Miya, J. Am. Pharmacol. Assoc. 46:208-209 (1957)) is used to disclose minimal muscular or neurological impairment (MMI). When a mouse is placed on a rod that rotates at a speed of 6 rpm, the animal can maintain its equilibrium for long periods of time. The animal is considered toxic if it falls off this rotating rod three times during a 1-min period.

mice [5] = assay: Mouse rotarod assay; conditions: rod at 6 rpm
Experimental: as §2

Chain of human α1H T-type channels (O95180 whole entry, the tested form may be a part): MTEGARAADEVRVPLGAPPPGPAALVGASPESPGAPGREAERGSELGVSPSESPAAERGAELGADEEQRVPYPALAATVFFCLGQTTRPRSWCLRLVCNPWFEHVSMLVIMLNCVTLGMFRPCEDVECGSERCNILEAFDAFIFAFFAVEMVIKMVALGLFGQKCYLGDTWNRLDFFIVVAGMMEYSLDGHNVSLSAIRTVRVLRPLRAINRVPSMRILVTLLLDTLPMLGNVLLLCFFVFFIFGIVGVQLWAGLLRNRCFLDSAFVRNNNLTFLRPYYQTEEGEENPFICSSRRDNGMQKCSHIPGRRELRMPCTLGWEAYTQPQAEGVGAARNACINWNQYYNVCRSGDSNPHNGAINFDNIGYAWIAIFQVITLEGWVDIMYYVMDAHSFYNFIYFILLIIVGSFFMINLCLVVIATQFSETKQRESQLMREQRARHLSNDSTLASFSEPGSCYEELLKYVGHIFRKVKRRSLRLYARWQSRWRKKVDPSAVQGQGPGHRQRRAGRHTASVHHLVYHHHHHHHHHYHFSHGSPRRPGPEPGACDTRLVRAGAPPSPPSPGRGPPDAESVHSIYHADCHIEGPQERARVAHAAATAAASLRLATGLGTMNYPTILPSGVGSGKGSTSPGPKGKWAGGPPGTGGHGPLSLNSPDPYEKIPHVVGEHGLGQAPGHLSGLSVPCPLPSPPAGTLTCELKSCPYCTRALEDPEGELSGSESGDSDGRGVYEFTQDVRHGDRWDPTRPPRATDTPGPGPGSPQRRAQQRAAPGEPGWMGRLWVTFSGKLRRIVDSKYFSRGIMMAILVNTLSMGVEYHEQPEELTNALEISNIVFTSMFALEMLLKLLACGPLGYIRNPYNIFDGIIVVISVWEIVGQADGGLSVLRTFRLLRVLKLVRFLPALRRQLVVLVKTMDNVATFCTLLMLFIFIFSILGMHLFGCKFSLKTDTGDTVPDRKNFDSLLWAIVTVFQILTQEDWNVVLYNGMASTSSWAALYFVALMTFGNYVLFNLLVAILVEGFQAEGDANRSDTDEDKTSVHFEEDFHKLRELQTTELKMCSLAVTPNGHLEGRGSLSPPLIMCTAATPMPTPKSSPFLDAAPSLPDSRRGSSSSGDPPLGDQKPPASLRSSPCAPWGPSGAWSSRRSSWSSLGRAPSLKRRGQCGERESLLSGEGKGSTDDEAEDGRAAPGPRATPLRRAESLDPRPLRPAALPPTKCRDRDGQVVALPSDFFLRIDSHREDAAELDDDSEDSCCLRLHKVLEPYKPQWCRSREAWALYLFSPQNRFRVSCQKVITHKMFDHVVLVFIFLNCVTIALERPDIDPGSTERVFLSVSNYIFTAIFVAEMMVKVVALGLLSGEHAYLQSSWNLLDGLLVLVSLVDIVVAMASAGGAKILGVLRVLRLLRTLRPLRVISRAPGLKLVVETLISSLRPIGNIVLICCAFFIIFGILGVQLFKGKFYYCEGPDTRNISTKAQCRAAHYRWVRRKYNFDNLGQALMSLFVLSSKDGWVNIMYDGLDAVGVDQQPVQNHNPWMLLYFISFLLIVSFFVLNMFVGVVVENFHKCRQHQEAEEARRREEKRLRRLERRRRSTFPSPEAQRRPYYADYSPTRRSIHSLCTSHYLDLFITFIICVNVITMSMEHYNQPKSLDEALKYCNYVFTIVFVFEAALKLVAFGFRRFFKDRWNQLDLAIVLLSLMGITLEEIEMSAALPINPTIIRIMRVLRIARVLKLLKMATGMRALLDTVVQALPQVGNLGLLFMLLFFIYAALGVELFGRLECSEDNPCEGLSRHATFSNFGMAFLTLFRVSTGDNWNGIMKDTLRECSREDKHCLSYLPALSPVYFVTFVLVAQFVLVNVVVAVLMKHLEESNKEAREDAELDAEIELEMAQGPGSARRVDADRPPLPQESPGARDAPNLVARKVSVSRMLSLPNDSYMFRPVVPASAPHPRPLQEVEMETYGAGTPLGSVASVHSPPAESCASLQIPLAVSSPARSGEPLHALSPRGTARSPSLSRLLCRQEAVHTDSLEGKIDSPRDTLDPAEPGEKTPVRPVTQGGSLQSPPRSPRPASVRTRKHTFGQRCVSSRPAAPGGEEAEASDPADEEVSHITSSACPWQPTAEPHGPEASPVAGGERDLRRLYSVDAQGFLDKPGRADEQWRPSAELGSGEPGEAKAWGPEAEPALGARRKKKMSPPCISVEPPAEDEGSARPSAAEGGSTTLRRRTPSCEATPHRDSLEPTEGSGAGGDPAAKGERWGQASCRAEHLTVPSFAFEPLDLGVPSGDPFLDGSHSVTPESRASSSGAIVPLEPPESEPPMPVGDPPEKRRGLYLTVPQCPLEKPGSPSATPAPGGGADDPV
Chain of human α1G T-type channels (O43497 whole entry): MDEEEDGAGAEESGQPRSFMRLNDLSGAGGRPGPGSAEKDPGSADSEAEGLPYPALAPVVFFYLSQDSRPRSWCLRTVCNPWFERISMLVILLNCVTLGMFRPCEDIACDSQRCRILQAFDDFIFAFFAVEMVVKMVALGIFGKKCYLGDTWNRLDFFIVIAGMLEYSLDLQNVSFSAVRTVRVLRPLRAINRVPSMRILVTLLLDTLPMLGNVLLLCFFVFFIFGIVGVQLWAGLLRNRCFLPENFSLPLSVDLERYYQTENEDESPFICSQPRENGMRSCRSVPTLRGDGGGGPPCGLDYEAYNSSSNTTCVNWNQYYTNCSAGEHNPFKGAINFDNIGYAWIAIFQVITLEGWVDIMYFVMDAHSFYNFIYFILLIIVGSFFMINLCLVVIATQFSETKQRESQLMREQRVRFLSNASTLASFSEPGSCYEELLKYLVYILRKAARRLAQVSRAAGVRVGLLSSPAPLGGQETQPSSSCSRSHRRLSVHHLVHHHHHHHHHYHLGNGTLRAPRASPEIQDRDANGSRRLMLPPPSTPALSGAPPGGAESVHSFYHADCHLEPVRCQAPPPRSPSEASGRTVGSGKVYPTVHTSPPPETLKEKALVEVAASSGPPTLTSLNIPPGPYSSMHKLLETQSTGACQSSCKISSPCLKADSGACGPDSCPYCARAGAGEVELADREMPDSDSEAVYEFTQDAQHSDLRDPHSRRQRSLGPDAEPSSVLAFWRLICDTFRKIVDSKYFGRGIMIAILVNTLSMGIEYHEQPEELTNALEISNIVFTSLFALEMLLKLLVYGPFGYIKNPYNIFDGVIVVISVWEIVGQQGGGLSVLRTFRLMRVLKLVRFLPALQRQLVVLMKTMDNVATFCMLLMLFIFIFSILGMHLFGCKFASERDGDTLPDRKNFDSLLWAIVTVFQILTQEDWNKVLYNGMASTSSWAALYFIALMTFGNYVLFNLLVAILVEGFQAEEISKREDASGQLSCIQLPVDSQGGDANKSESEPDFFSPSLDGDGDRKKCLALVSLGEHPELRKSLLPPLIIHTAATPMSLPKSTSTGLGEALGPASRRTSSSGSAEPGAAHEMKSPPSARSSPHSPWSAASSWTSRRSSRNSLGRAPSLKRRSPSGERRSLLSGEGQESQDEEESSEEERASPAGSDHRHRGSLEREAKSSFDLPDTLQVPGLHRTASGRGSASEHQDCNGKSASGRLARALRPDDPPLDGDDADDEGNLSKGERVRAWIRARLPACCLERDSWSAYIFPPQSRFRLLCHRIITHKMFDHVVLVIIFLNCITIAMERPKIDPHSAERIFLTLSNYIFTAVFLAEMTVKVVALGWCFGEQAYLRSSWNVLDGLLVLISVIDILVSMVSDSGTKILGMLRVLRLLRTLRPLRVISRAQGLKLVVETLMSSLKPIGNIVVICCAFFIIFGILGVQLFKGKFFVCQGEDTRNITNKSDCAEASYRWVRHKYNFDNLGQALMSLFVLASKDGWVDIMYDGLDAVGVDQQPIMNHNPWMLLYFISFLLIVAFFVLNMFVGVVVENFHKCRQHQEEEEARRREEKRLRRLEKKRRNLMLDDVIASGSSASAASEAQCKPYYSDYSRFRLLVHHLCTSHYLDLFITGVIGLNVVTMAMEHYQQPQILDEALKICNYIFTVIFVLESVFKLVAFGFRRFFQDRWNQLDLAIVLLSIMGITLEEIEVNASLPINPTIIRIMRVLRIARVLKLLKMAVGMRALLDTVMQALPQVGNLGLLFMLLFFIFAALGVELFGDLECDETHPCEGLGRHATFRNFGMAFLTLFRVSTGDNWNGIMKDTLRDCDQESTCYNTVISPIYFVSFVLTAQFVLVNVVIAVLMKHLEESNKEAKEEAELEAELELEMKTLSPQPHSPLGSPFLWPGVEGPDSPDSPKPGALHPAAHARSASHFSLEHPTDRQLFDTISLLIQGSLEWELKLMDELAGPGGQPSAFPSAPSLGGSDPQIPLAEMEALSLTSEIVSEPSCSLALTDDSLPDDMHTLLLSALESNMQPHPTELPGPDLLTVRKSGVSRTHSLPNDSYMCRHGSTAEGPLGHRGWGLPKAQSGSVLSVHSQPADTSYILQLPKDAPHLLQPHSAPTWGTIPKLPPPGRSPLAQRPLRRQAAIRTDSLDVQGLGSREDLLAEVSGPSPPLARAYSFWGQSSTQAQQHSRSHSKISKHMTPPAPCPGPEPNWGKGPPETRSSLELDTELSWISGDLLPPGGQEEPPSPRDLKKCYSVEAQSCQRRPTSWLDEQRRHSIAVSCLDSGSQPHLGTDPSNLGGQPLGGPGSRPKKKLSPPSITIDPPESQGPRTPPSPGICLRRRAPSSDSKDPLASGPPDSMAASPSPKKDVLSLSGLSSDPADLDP

Structure (SMILES)	IC50 [1]	IC50 [2]	activity (IC50), T-type channel block (T-type calcium channel)	IC50 [3]	Epilepsy 6 Hz (% protected) 0.25 hr (male CF1 mice)	Epilepsy 6 Hz (% protected) 0.5 hr (male CF1 mice)	Epilepsy 6 Hz (% protected) 1 hr (male CF1 mice)	Epilepsy 6 Hz (% protected) 2 hr (male CF1 mice)	Epilepsy 6 Hz (% protected) 4 hr (male CF1 mice)	EPILEPSY ROTAROD (% IMPAIRED) 0.25 hr (mice [4])	EPILEPSY ROTAROD (% IMPAIRED) 0.5 hr (mice [4])	EPILEPSY ROTAROD (% IMPAIRED) 1 hr (mice [4])	EPILEPSY ROTAROD (% IMPAIRED) 2 hr (mice [4])	EPILEPSY ROTAROD (% IMPAIRED) 4 hr (mice [4])	EPILEPSY ROTAROD (% IMPAIRED) 0.25 hr (mice [5])	EPILEPSY ROTAROD (% IMPAIRED) 0.5 hr (mice [5])	EPILEPSY ROTAROD (% IMPAIRED) 1 hr (mice [5])	EPILEPSY ROTAROD (% IMPAIRED) 2 hr (mice [5])	EPILEPSY ROTAROD (% IMPAIRED) 4 hr (mice [5])
COc1cc(F)cc(C(=O)N[C@H]2CC[C@H](S(=O)(=O)c3cccc(C(F)(F)F)c3)CC2)c1 [Compound 59, 3-fluoro-5-methoxy-N-((1R,4R)-4-(3-(trifluoromethyl)phenylsulfonyl)cyclohexyl)benzamide]	8090 nM	440 nM	lowest IC50	9130 nM															
O=C(NCC1(O)CCC(S(=O)(=O)c2cccc(C(F)(F)F)c2)CC1)c1ccc(F)c(Cl)c1 [Compound 230, 3-chloro-4-fluoro-N-(((1S,4S)-1-hydroxy-4-(3-(trifluoromethyl)phenylsulfonyl)cyclohexyl)methyl)benzamide]		790 nM		1180 nM	0%	25%	25%	100%	0%	0%	0%	0%	0%	0%					
O=C(NC1CCC(F)(S(=O)(=O)c2cccc(C(F)(F)F)c2)CC1)c1nocc1C1CC1 [Compound 272, 4-cyclopropyl-N-((1S,4S)-4-fluoro-4-(3-(trifluoromethyl)phenylsulfonyl)cyclohexyl) isoxazole-3-carboxamide]	> 10000 nM	430 nM		> 10000 nM	0%	0%	0%	0%	0%						0%	0%	0%	0%	0%
CS(=O)(=O)c1cc(C(F)(F)F)ccc1C(=O)NCC1CC(S(=O)(=O)c2cccc(C(F)(F)F)c2)C1 [Compound 356, 2-(methylsulfonyl)-4-(trifluoromethyl)-N-(((1R,3R)-3-(3-(trifluoromethyl)phenylsulfonyl)cyclobutyl)methyl)benzamide]	3170 nM	570 nM		9510 nM	25%	0%	0%	0%	0%	0%	0%	0%	0%	0%					
CS(=O)(=O)c1nc(C(F)(F)F)ccc1C(=O)NCC1CC(S(=O)(=O)c2cccc(C(F)(F)F)c2)C1 [Compound 365, 2-(methylsulfonyl)-6-(trifluoromethyl)-N-(((1R,3R)-3-(3-(trifluoromethyl)phenylsulfonyl)cyclobutyl)methyl)nicotinamide]	2190 nM	1610 nM		6480 nM	25%	50%	50%	25%	25%						0%	0%	0%	0%	0%
CC(C)S(=O)(=O)c1cc(C(F)(F)F)cnc1C(=O)NC[C@H]1C[C@H](S(=O)(=O)c2cccc(C(F)(F)F)c2)C1 [Compound 374, 3-(isopropylsulfonyl)-5-(trifluoromethyl)-N-(((1R,3R)-3-(3-(trifluoromethyl)phenylsulfonyl)cyclobutyl)methyl)picolinamide]	2110 nM	250 nM		7730 nM	0%	0%	0%	0%	0%						0%	0%	0%	0%	0%
O=C(NCC1CC(S(=O)(=O)c2cc(F)cc(C(F)(F)F)c2)C1)c1cc(F)cc(Cl)c1 [Compound 396, 3-chloro-5-fluoro-N-(((1R,3R)-3-(3-fluoro-5-(trifluoromethyl)phenylsulfonyl)cyclobutyl)methyl)benzamide]		940 nM			50%	0%	0%	25%	0%	0%	0%	0%	0%	0%					
CC(C)(C1CC(NC(=O)c2cn3cc(C(F)(F)F)ccc3n2)C1)S(=O)(=O)c1cccc(C(F)(F)F)c1 [Compound 438, 6-(trifluoromethyl)-N-((1R,3R)-3-(2-(3-(trifluoromethyl)phenylsulfonyl)propan-2-yl)cyclobutyl)imidazo[1,2-a]pyridine-2-carboxamide]		400 nM			75%	0%	0%	25%	0%	0%	0%	0%	0%	0%					
O=S(=O)(c1cccc(C(F)(F)F)c1)C1CC(c2c[nH]c(C(F)(F)F)n2)C1 [Compound 442, 2-(trifluoromethyl)-4-((1R,3R)-3-(3-(trifluoromethyl)phenylsulfonyl)cyclobutyl)-1H-imidazole]		2840 nM			50%	25%	75%	0%	0%	0%	0%	0%	0%	0%					
